Consider 22 molecules from patent US11673876B2, “Substituted aminobenzyl heteroaryl compounds as EGFR and/or PI3K inhibitors” (Mekanistic Therapeutics LLC, priority 2020, dated 2023).

A value given as a limit tells only on which side of the number the result lay.

Common to all, as to assay type: biochemical
For experiment [1], the target named is DNA-PK (Homo sapiens (Human), UniProt P78527). Nature of the experiment: Z'-LYTE / Adapta kinase assay, DNA-PK. The settings on record: read-out: DNA-PK % Inh. @ 100 nM. From the text: (§1) The Z′-LYTE® biochemical assay employs a fluorescence-based, coupled-enzyme format and is based on the differential sensitivity of phosphorylated and non-phosphorylated peptides to proteolytic cleavage (FIG. 6). The peptide substrate is labeled with two fluorophores one at each end—that make up a FRET pair. In the primary reaction, the kinase transfers the gamma-phosphate of ATP to a single tyrosine, serine or threonine residue in a synthetic FRET-peptide. In the secondary reaction, a site-specific protease recognizes and cleaves non-phosphorylated FRET-peptides. Phosphorylation of FRET-peptides suppresses cleavage by the Development Reagent. Cleavage disrupts FRET between the donor (i.e., coumarin) and acceptor (i.e., fluorescein) fluorophores on the FRET-peptide, whereas uncleaved, phosphorylated FRET-peptides maintain FRET. A ratiometric method, which calculates the ratio (the Emission Ratio) of donor emission to acceptor emission after excitation of the donor fluorophore at 400 nm, is used to quantitate reaction progress.
(§2) A significant benefit of this ratiometric method for quantitating reaction progress is the elimination of well-to-well variations in FRET-peptide concentration and signal intensities. As a result, the assay yields very high Z′-factor values (>0.7) at a low percent phosphorylation.
(§3) Both cleaved and uncleaved FRET-peptides contribute to the fluorescence signals and therefore to the Emission Ratio. The extent of phosphorylation of the FRET-peptide can be calculated from the Emission Ratio.
(§4) Enzyme: The ADAPTA universal kinase assay is a homogenous, fluorescent based immunoassay for the detection of ADP. In contrast to ATP depletion assays, the ADAPTA assay is extremely sensitive to ADP formation such that a majority of the signal change occurs in the first 10-20% conversion of ATP to ADP. This makes the ADAPTA universal kinase assay ideally suited for use with low activity kinases.
(§5) The principle of the ADAPTA universal kinase assay is outlined below. The assay itself can be divided into two phases: a kinase reaction phase, and an ADP detection phase. In the kinase reaction phase, all components required for the kinase reaction are added to the well, and the reaction is allowed to incubate for 60 minutes.
(§6) Z′-LYTE® Assay Conditions:
(§7) Test Compounds: The Test Compounds are screened in 1% DMSO (final) in the well. For 10 point titrations, 3-fold serial dilutions are conducted from the starting concentration.
(§8) Peptide/Kinase Mixtures: All Peptide/Kinase Mixtures are diluted to a 2× working concentration in the appropriate Kinase Buffer.
(§9) ATP Solution: All ATP Solutions are diluted to a 4× working concentration in Kinase Buffer (50 mM HEPES pH 7.5, 0.01% BRIJ-35, 10 mM MgCl2, 1 mM EGTA). ATP Km apparent is previously determined using a Z′-LYTE® assay.
(§10) Development Reagent Solution: The Development Reagent is diluted in Development Buffer. […]
(§11) 2.5 μL—4× Test Compound or 100 nL 100× plus 2.4 μL kinase buffer. 2. 5 μL—2× Peptide/Kinase Mixture. 3. 2.5 μL—4× ATP Solution. 4. 30-second plate shake. 5. 60-minute Kinase Reaction incubation at room temperature. 6. 5 μL—Development Reagent Solution. 7. 30-second plate shake. 8. 60-minute Development Reaction incubation at room temperature. 9.

The target in experiment [2] is EGFR (Homo sapiens (Human), UniProt P00533). Kind of experiment: Z'-LYTE / Adapta kinase assay, EGFR. The settings on record: read-out: EGFR % Inh. @ 100 nM.
Chain of EGFR (P00533 25-1210): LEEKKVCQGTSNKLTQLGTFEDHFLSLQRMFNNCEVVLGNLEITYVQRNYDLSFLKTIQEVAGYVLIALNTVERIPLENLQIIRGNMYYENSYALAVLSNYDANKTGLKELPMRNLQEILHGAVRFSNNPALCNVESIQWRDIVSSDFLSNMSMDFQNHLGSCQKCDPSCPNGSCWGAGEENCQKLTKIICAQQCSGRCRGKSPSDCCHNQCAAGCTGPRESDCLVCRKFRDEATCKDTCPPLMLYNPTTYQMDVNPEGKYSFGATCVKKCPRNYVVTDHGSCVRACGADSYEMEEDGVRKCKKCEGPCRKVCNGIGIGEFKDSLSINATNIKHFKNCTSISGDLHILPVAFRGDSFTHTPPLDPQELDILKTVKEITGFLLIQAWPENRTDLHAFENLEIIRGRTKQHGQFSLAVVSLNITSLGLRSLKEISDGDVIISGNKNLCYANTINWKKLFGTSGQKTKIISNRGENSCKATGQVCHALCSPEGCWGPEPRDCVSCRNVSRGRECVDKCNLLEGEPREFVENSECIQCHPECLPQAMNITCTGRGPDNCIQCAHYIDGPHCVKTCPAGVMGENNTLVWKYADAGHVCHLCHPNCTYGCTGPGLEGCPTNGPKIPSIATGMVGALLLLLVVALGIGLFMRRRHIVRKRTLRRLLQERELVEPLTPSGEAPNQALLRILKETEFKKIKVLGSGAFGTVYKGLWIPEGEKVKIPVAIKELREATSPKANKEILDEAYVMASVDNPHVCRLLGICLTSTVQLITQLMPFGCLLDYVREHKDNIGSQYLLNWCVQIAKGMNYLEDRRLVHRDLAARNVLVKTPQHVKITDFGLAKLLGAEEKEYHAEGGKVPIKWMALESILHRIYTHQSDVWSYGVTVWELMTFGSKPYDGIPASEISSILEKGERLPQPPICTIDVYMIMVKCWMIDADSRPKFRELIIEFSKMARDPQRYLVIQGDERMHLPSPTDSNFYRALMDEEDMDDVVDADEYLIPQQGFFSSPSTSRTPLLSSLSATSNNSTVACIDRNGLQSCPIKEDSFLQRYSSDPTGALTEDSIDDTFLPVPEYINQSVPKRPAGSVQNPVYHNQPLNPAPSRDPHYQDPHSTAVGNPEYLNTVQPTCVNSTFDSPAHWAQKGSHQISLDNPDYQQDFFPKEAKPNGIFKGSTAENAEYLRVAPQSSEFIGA
From the text: as §1, §2, §3, §4, §5, §6, §7, §8, §9, §10, §11

The target of experiment [3] is PI3Ka (Homo sapiens (Human), UniProt P42336). Kind of experiment: Z'-LYTE / Adapta kinase assay, PI3Ka. The settings on record: read-out: PI3Ka % Inh. @ 100 nM.
Chain of PI3Ka (P42336 whole entry): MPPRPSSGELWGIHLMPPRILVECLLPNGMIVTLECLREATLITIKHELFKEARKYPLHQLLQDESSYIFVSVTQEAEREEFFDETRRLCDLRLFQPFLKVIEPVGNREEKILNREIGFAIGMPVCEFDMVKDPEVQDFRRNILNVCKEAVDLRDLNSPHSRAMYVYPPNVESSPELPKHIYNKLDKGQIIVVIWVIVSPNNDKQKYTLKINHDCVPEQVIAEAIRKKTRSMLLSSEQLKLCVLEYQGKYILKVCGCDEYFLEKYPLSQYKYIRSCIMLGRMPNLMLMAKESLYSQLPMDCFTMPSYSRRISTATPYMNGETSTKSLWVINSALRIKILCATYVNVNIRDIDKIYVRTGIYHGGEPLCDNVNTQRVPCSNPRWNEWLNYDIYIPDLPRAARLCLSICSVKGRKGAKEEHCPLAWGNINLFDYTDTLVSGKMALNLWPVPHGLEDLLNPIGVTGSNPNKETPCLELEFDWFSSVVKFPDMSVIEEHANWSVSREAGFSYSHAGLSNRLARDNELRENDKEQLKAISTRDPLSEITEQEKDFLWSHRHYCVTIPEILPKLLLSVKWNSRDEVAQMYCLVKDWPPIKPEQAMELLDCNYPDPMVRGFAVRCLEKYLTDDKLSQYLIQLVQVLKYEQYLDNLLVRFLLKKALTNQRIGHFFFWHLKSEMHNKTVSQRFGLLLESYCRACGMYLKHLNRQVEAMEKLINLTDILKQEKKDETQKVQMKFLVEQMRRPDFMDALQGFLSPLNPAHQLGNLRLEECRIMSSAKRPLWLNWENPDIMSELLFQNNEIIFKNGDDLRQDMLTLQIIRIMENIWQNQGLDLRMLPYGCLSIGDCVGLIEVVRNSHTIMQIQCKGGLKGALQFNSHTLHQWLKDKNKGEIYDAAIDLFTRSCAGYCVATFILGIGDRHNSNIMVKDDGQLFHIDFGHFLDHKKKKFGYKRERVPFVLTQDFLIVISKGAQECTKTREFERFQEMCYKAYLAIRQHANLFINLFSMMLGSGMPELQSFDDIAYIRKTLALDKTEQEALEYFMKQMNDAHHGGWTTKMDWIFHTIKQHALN
Chain of PI3Ka (P27986 whole entry partner): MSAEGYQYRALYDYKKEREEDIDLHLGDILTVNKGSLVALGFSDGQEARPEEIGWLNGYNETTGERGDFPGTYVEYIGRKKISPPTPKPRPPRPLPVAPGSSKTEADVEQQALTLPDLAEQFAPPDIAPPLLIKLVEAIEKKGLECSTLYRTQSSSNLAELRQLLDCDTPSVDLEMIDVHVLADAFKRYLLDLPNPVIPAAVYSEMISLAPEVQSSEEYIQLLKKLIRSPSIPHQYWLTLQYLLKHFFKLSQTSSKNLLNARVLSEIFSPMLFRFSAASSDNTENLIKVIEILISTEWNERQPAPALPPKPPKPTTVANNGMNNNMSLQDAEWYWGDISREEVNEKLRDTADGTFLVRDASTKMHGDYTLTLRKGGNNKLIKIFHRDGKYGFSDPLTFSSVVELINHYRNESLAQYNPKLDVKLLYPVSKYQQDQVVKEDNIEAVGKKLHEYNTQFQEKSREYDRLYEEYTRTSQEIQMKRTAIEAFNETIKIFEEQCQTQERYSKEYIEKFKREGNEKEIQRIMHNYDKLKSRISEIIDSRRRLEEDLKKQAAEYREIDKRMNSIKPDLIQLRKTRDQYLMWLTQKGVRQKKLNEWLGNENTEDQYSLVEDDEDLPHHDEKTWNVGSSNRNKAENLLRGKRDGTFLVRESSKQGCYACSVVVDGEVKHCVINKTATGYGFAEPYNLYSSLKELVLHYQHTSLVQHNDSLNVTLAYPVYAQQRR
From the text: as §1, §2, §3, §4, §5, §6, §7, §8, §9, §10, §11

Regarding `CC(Nc1ncnc2ccc(-c3cnc4[nH]ncc4c3)cc12)c1ccccc1` (centres unmarked) [Compound 8, N-(1-phenylethyl)-6-(1H-pyrazolo[3,4-b]pyridin-5-yl)quinazolin-4-amine], the inhibition at 0.1 µM was 10 to 80% in experiment [1], 80 to 90% in experiment [2] and 10 to 80% in experiment [3].
For the molecule `Cc1nc2cc(-c3ccc4ncnc(NC(C)c5ccccc5)c4c3)cnc2[nH]1` (centres unmarked) [Compound 10, 6-(2-methyl-1H-imidazo[4,5-b]pyridin-6-yl)-N-(1-phenylethyl)quinazolin-4-amine], the inhibition at 0.1 µM in experiment [1] is 10 to 80%; in experiment [2], 80 to 90%; in experiment [3], 10 to 80%.
For the molecule `CC(Nc1ncnc2ccc(-c3cncc(C(C)(C)O)c3)cc12)c1ccccc1` (centres unmarked) [Compound 21, 2-[5-[4-(1-phenylethylamino)quinazolin-6-yl]-3-pyridyl]propan-2-ol], the inhibition at 0.1 µM lay within 10 to 80% in experiment [1], 80 to 90% in experiment [2] and 10 to 80% in experiment [3].
Take `CC(Nc1ncnc2ccc(-c3cnc4[nH]nnc4c3)cc12)c1ccccc1` (centres unmarked) [Compound 24, N-(1-phenylethyl)-6-(3H-triazolo[4,5-b]pyridin-6-yl)quinazolin-4-amine]: the inhibition at 0.1 µM in experiment [1] was 10 to 80%; in experiment [2], over 90%; in experiment [3], 10 to 80%.
On to `CC(Nc1ncnc2ccc(-c3cnc4cnn(C)c4c3)cc12)c1ccccc1` (centres unmarked) [Compound 27, 6-(1-methylpyrazolo[4,3-b]pyridin-6-yl)-N-(1-phenylethyl)quinazolin-4-amine], for which the values for the inhibition at 0.1 µM in experiment [1], in experiment [2] and in experiment [3] were 10 to 80%, 10 to 80% and under 10%, respectively.
Take `CC(Nc1ncnc2ccc(-c3cnc(N)c(S(C)(=O)=O)c3)cc12)c1ccccc1` (centres unmarked) [Compound 31, 6-(6-amino-5-(methylsulfonyl)pyridin-3-yl)-N-(1-phenylethyl)quinazolin-4-amine]: the values for the inhibition at 0.1 µM in experiment [1], in experiment [2] and in experiment [3] were over 90%, over 90% and 80 to 90%, respectively.
As for `CC(Nc1ncnc2ccc(-c3cnc4cncn4c3)cc12)c1ccccc1` (centres unmarked) [Compound 34, 6-(imidazo[1,5-a]pyrimidin-3-yl)-N-(1-phenylethyl)quinazolin-4-amine], the inhibition at 0.1 µM was 80 to 90% in experiment [1], over 90% in experiment [2] and over 90% in experiment [3].
As for `CC(Nc1ncnc2ccc(-c3cnc(N)c(C(=O)N(C)C)c3)cc12)c1ccccc1` (centres unmarked) [Compound 36, 2-amino-N, N-dimethyl-5-[4-(1-phenylethylamino)quinazolin-6-yl] pyridine-3-carboxamide], the inhibition at 0.1 µM in experiment [1], in experiment [2] and in experiment [3] was 10 to 80% each time.
Turning to `CC(Nc1ncnc2ccc(-c3ccc4oc(N)nc4c3)cc12)c1ccccc1` (centres unmarked) [Compound 41, 5-[4-(1-phenylethylamino)quinazolin-6-yl]-1,3-benzoxazol-2-amine], the inhibition at 0.1 µM in experiment [1] is under 10%; in experiment [2], over 90%; in experiment [3], 10 to 80%.
In the case of `C[C@@H](Nc1c(C#N)cnc2ccc(-c3cnc4[nH]ncc4c3)cc12)c1ccccc1` [Compound 54R, 4-[[(1R)-1-phenylethyl]amino]-6-(1H-pyrazolo [3,4-b]pyridin-5-yl) quinoline-3-carbonitrile], the inhibition at 0.1 µM was 10 to 80% in experiment [1], 80 to 90% in experiment [2] and 10 to 80% in experiment [3].
Regarding `CC(Nc1c(C#N)cnc2ccc(-c3cnc4[nH]ccc4c3)cc12)c1ccccc1` (centres unmarked) [Compound 55, 4-(1-phenylethylamino)-6-(1H-pyrrolo [2,3-b]pyridin-5-yl) quinoline-3-carbonitrile], the results for the inhibition at 0.1 µM in experiment [1], in experiment [2] and in experiment [3] were 10 to 80%, 10 to 80% and under 10%, respectively.
On to `Cc1nc2cc(-c3ccc4ncc(C#N)c(NC(C)c5ccccc5)c4c3)cnc2[nH]1` (centres unmarked) [Compound 56, 6-(2-methyl-3H-imidazo[4,5-b]pyridin-6-yl)-4-(1-phenylethylamino) quinoline-3-carbonitrile], for which the inhibition at 0.1 µM in experiment [1], in experiment [2] and in experiment [3] was 10 to 80% each time.
As for `CC(Nc1c(C#N)cnc2ccc(-c3cncc(O)c3)cc12)c1ccccc1` (centres unmarked) [Compound 61, 6-(5-hydroxy-3-pyridyl)-4-(1-phenylethylamino) quinoline-3-carbonitrile], the figures for the inhibition at 0.1 µM in experiment [1], in experiment [2] and in experiment [3] were 10 to 80%, 80 to 90% and under 10%, respectively.
As to `CC(Nc1c(C#N)cnc2ccc(-c3cnc(N)c(C(F)(F)F)c3)cc12)c1ccccc1` (centres unmarked) [Compound 62, 6-(6-amino-5-(trifluoromethyl)pyridin-3-yl)-4-((1-phenylethyl)amino)quinoline-3-carbonitrile], the inhibition at 0.1 µM in experiment [1] was 10 to 80%; in experiment [2] it was 10 to 80%; in experiment [3], under 10%.
Regarding `CC(Nc1c(C#N)cnc2ccc(-c3cncc(C#N)c3)cc12)c1ccccc1` (centres unmarked) [Compound 64, 6-(5-cyano-3-pyridyl)-4-(1-phenylethylamino) quinoline-3-carbonitrile], the inhibition at 0.1 µM in experiment [1], in experiment [2] and in experiment [3] was 10 to 80% in each case.
Turning to `CC(Nc1c(C#N)cnc2ccc(-c3cnc(N)c(C#N)c3)cc12)c1ccccc1` (centres unmarked) [Compound 65, 6-(6-amino-5-cyano-3-pyridyl)-4-(1-phenylethylamino) quinoline-3-carbonitrile], the results for the inhibition at 0.1 µM in experiment [1], in experiment [2] and in experiment [3] were 10 to 80%, 80 to 90% and 10 to 80%, respectively.
Consider `CC(Nc1c(C#N)cnc2ccc(-c3cncc(C(C)(C)O)c3)cc12)c1ccccc1` (centres unmarked) [Compound 67, 6-[5-(1-hydroxy-1-methyl-ethyl)-3-pyridyl]-4-(1-phenylethylamino) quinoline-3-carbonitrile], for which the inhibition at 0.1 µM in experiment [1], in experiment [2] and in experiment [3] was 10 to 80% each time.
For the molecule `COc1cc(-c2ccc3ncc(C#N)c(NC(C)c4ccccc4)c3c2)cnc1OC` (centres unmarked) [Compound 68, 6-(5,6-dimethoxy-3-pyridyl)-4-(1-phenylethylamino)quinoline-3-carbonitrile], the figures for the inhibition at 0.1 µM in experiment [1], in experiment [2] and in experiment [3] were 10 to 80%, 80 to 90% and 10 to 80%, respectively.
Regarding `CC(Nc1c(C#N)cnc2ccc(-c3cnc4[nH]nnc4c3)cc12)c1ccccc1` (centres unmarked) [Compound 70, 4-(1-phenylethylamino)-6-(3H-triazolo [4,5-b]pyridin-6-yl) quinoline-3-carbonitrile], the inhibition at 0.1 µM was in the range of 10 to 80% in experiment [1], 80 to 90% in experiment [2] and 10 to 80% in experiment [3].
Consider `CC(Nc1c(C#N)cnc2ccc(-c3cnc4cnn(C)c4c3)cc12)c1ccccc1` (centres unmarked) [Compound 73, 6-(1-methylpyrazolo [4,3-b]pyridin-6-yl)-4-(1-phenylethylamino) quinoline-3-carbonitrile], for which the inhibition at 0.1 µM in experiment [1] was under 10%; in experiment [2], 10 to 80%; in experiment [3], 10 to 80%.
`CC(Nc1c(C#N)cnc2ccc(-c3ccc4oc(N)nc4c3)cc12)c1ccccc1` (centres unmarked) [Compound 87, 6-(2-amino-1,3-benzoxazol-5-yl)-4-(1-phenylethylamino) quinoline-3-carbonitrile]: the inhibition at 0.1 µM in experiment [1] is under 10%; in experiment [2], 80 to 90%; in experiment [3] it was 10 to 80%.
As to `CS(=O)(=O)Nc1cc(-c2ccc3ncc(C#N)c(NC4c5ccccc5CC4O)c3c2)cnc1Cl` (centres unmarked) [Compound 103, N-[2-chloro-5-[3-cyano-4-[(2-hydroxyindan-1-yl)amino]-6-quinolyl]-3-pyridyl]methanesulfonamide], the inhibition at 0.1 µM in experiment [1] was over 90%; in experiment [2], under 10%.
